Results on 66 compounds are retold here after patent publication US7332608B2, “Anthranilamides and methods of their use” (SANOFI-AVENTIS Deutschland GmbH, priority 2001, dated 2008).

The assay deals with T1, Human Kv1.5 channels (Homo sapiens, UniProt P22460).
T1 construct: expressed in transfected cells; host or cells: Xenopus laevis oocytes injected with in vitro synthesized Kv1.5-encoding RNA
T1 sequence (P22460 whole entry): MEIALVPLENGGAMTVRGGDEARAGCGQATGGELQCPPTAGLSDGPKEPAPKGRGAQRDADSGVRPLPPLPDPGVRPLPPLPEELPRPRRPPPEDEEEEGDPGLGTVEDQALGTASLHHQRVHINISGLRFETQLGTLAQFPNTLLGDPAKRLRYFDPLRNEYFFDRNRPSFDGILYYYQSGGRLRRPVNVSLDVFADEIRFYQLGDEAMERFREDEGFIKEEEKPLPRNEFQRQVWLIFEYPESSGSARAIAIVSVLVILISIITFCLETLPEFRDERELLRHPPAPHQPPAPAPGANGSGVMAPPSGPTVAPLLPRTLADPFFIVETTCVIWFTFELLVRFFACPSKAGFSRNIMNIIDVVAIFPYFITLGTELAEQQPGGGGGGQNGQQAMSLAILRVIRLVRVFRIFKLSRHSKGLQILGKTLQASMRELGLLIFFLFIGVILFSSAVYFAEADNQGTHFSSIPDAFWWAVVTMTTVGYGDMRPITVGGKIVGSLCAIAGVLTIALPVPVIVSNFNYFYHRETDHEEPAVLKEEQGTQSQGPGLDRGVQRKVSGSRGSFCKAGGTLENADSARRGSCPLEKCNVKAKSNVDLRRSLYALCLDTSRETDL
The assay can be described thus: Kv1.5 currents in Xenopus oocytes, two-microelectrode voltage clamp. Conditions: human Kv1.5 expressed in Xenopus laevis oocytes; voltage jumps 500 ms to 0 mV and 40 mV; room temperature; Hill equation. It counts as cell-based. Here is the method: Human Kv1.5 channels were expressed in Xenopus oocytes. For this purpose, firstly ooytes were isolated from Xenopus laevis and were defolliculated. Kv1.5-encoding RNA which had been synthesized in vitro was then injected into these oocytes. After 1-7 days of Kv1.5 protein expression, the Kv1.5 currents were measured on the oocytes by the two-microelectrode voltage clamp technique. The Kv1.5 channels were for this purpose usually activated with voltage jumps lasting 500 ms to 0 mV and 40 mV. A solution of the following composition flowed through the bath: NaCl 96 mM, KCl 2 mM, CaCl2 1.8 mM, MgCl2 1 mM, HEPES 5 mM (titrated to pH 7.4 with NaOH). These experiments were carried out at room temperature. The following were employed for data acquisition and analysis: geneclamp amplifier (Axon Instruments, Foster City, USA) and MacLab D/A converter and software (ADInstruments, Castle Hill, Australia). The compounds of the invention were tested by adding them in various concentrations to the bath solution. The effects of the compounds were calculated as percentage inhibition of the Kv1.5 control current which was obtained when no compound was added to the solution. The data were then extrapolated using the Hill equation in order to determine the inhibitory concentrations IC50 for the respective compounds.
What is called IC50 is the concentration at which inhibition is half-maximal. `CC[C@H](NC(=O)c1ccccc1NS(=O)(=O)c1cccc2c(N(C)C)cccc12)c1ccccc1` [Example 65] registered an IC50 of 4.8 µM. This counts as single-digit micromolar.
Compound `CC[C@H](NC(=O)c1ccccc1NS(=O)(=O)c1ccc(C(F)(F)F)cc1)c1ccccc1` [Example 66] came in with an IC50 of 4 µM.
Regarding `CC[C@H](NC(=O)c1ccccc1NS(=O)(=O)c1ccc(OC(F)(F)F)cc1)c1ccccc1` [Example 67], it took 5.8 µM to reach half-maximal inhibition (IC50).
The figure for `CC[C@H](NC(=O)c1ccccc1NS(=O)(=O)c1ccc(Cl)cc1)c1ccccc1` [Example 68] is 2.9 µM.
Compound `CC[C@H](NC(=O)c1ccccc1NS(=O)(=O)c1ccccc1)c1ccccc1` [Example 69] returned an IC50 of 1.3 µM.
The figure for `COc1cccc(S(=O)(=O)Nc2ccccc2C(=O)N(Cc2ccccc2)Cc2cccnc2)c1` [Example 70] is 3.8 µM; for `CCCCS(=O)(=O)Nc1ccccc1C(=O)N(Cc1ccccc1)Cc1cccnc1` [Example 71] it is 6.9 µM.
In turn, `CCc1ccc(S(=O)(=O)Nc2ccccc2C(=O)N(Cc2ccccc2)Cc2cccnc2)cc1` [Example 72] returned an IC50 of 5 µM.
As to `CCCS(=O)(=O)Nc1ccccc1C(=O)N[C@@H](CC)c1ccccc1` [Example 73], inhibition was half-maximal at 3.1 µM (IC50).
For `CC[C@H](NC(=O)c1ccccc1NS(=O)(=O)CCC(C)C)c1ccccc1` [Example 74], the IC50 was 1.7 µM.
In the case of `Cc1cccc(S(=O)(=O)Nc2ccccc2C(=O)N(Cc2ccccc2)Cc2cccnc2)c1` [Example 75], the IC50 turned out to be 2.9 µM. This IC50 lies about 1.7-fold higher than the previous one.
To `CC[C@H](NC(=O)c1ccccc1NS(=O)(=O)c1ccc(C)cc1OC)c1ccccc1` [Example 76] belongs 4.7 µM; to `CCc1ccc(S(=O)(=O)Nc2ccccc2C(=O)N[C@@H](CC)c2ccccc2)cc1` [Example 77], 2.6 µM.
For `Cc1ccc(S(=O)(=O)Nc2ccccc2C(=O)N(Cc2ccccc2)Cc2cccnc2)cc1` [Example 79], inhibition was half-maximal at 0.7 µM (IC50).
In the case of `Cc1ccc(S(=O)(=O)Nc2ccc(F)cc2C(=O)N(Cc2ccccc2)Cc2nccn2C)cc1` [Example 81], it took 0.4 µM to reach half-maximal inhibition (IC50).
To `COc1cccc(CN(CC2CC2)C(=O)c2ccccc2NS(=O)(=O)c2ccc(C)cc2)c1` [Example 82] belongs 3.2 µM; to `Cc1ccc(S(=O)(=O)Nc2ccccc2C(=O)N(Cc2ccccc2)Cc2cccn2C)cc1` [Example 83], 1.9 µM.
The compound `Cc1ccc(S(=O)(=O)Nc2ccccc2C(=O)N(Cc2ccccc2)Cc2nccs2)cc1` [Example 84] had an IC50 of 1 µM.
On to `Cc1ccc(S(=O)(=O)Nc2ccccc2C(=O)N(Cc2ccn[nH]2)CC2CC2)cc1` [Example 85], for which the IC50 is 5.2 µM.
Compound `Cc1ccc(S(=O)(=O)Nc2ccccc2C(=O)N(Cc2ccccc2)Cc2ccc[nH]2)cc1` [Example 86] had an IC50 of 1.8 µM.
For `Cc1ccc(S(=O)(=O)Nc2ccccc2C(=O)N(Cc2cnc3ccccc3c2)CC2CC2)cc1` [Example 87], the IC50 worked out at 6 µM.
The figure for `CCc1nc(C)c(CN(Cc2ccccc2)C(=O)c2ccccc2NS(=O)(=O)c2ccc(C)cc2)[nH]1` [Example 88] is 3.9 µM.
Take `Cc1ccc(S(=O)(=O)Nc2ccccc2C(=O)N(Cc2ccccc2)Cc2nn(C)cc2Cl)cc1` [Example 89]: the IC50 came to 3.2 µM. The IC50 values of the last two compounds are within 1.5-fold of each other.
`CC[C@H](NC(=O)c1cc(OC)ccc1NS(=O)(=O)c1ccc(C)cc1)c1ccccc1` [Example 90] gave an IC50 of 0.5 µM.
Take `CCC(NC(=O)c1cc(OC)ccc1NS(=O)(=O)c1ccc(C)cc1)c1ccc(F)cc1` (stereo not drawn) [Example 91]: the IC50 worked out at 0.8 µM.
Consider `CCCC(NC(=O)c1cc(OC)ccc1NS(=O)(=O)c1ccc(C)cc1)c1ccccc1` (stereo not drawn) [Example 92], for which the IC50 is 0.9 µM.
For `COc1ccc(NS(=O)(=O)c2ccc(C)cc2)c(C(=O)NC(c2ccccc2)C2CC2)c1` (stereo not drawn) [Example 93], the IC50 amounted to 1.1 µM.
Compound `O=C(NC(c1ccccc1)C1CC1)c1ccccc1NS(=O)(=O)c1ccccc1` (stereo not drawn) [Example 94] yielded an IC50 of 1 µM.
In turn, `COc1ccc(NS(=O)(=O)c2ccc(C)cc2)c(C(=O)N[C@@H](C)C2CCCCC2)c1` [Example 95] yielded an IC50 of 0.7 µM.
The figure for `COc1cccc([C@H](C)NC(=O)c2cc(OC)ccc2NS(=O)(=O)c2ccc(C)cc2)c1` [Example 96] is 1 µM.
To `COc1ccc([C@H](C)NC(=O)c2cc(OC)ccc2NS(=O)(=O)c2ccc(C)cc2)cc1` [Example 97] belongs 0.9 µM; to `C[C@@H](c1ccccc1)N(C)C(=O)c1ccccc1NS(=O)(=O)c1ccccc1` [Example 98], 2 µM.
To `CC[C@@H](NC(=O)c1cc(OC)ccc1NS(=O)(=O)c1ccc(C)cc1)c1ccccc1` [Example 99] belongs 0.9 µM.
As for `Cc1ccc(S(=O)(=O)Nc2ccc(F)cc2C(=O)N(Cc2ccccc2)CC2CCCO2)cc1` (stereo not drawn) [Example 100], 1.6 µM corresponded to half-maximal inhibition (IC50).
To `Cc1ccc(S(=O)(=O)Nc2ccc(F)cc2C(=O)N(Cc2ccccc2)Cc2cccc(C)n2)cc1` [Example 101] belongs 0.9 µM; to `Cc1ccc(S(=O)(=O)Nc2ccc(F)cc2C(=O)N(Cc2ccccc2)Cc2ccn[nH]2)cc1` [Example 102], 0.7 µM; to `COc1ccc(NS(=O)(=O)c2ccc(C)cc2)c(C(=O)NC(C)(C)c2ccccc2)c1` [Example 103], 1.4 µM.
As to `COc1ccc(NS(=O)(=O)c2ccc(C)cc2)c(C(=O)NC(C)c2ccc(F)cc2)c1` (stereo not drawn) [Example 104], the midpoint of inhibition, the IC50, lay at 1 µM. The IC50 values of the last two compounds are within 1.5-fold of each other.
On to `C[C@H](c1ccccc1)N(C)C(=O)c1ccccc1NS(=O)(=O)c1ccccc1` [Example 105], for which inhibition was half-maximal at 2.6 µM (IC50).
`CC[C@H](NC(=O)c1cc(F)ccc1NS(=O)(=O)c1ccc(Cl)cc1)c1ccccc1` [Example 106] came in with an IC50 of 3.8 µM.
With `Cc1ccc(S(=O)(=O)Nc2ccc(F)cc2C(=O)N(Cc2ccc(F)cc2)Cc2nccn2C)cc1` [Example 107], the IC50 is 0.9 µM.
As for `Cc1ccc(S(=O)(=O)Nc2ccc(F)cc2C(=O)N(Cc2ccc(F)cc2)Cc2ccn[nH]2)cc1` [Example 108], half-maximal inhibition (IC50) required 1.2 µM.
Take `Cc1ccc(S(=O)(=O)Nc2ccccc2C(=O)N(Cc2ccc(F)cc2)Cc2nccn2C)cc1` [Example 109]: the IC50 stood at 1.1 µM.
`Cc1ccc(S(=O)(=O)Nc2ccc(F)cc2C(=O)N(Cc2ccccc2)Cc2nccs2)cc1` [Example 110] had a 50% inhibitory concentration (IC50) of 1 µM.
The figure for `Cc1ccc(S(=O)(=O)Nc2ccccc2C(=O)N(Cc2nn(C)cc2Cl)CC2CC2)cc1` [Example 111] is 1.7 µM; for `Cc1ccc(S(=O)(=O)Nc2ccccc2C(=O)N(Cc2ccccc2)Cc2ccn[nH]2)cc1` [Example 112] it is 0.5 µM.
Consider `Cc1ccc(S(=O)(=O)Nc2ccccc2C(=O)N(Cc2cccc(C)n2)CC2CC2)cc1` [Example 113], for which it took 2.6 µM to reach half-maximal inhibition (IC50).
Consider `CCCCS(=O)(=O)Nc1ccc(C)cc1C(=O)N[C@H](CC)c1ccccc1` [Example 114], for which the IC50 is 1.4 µM.
Compound `CC[C@H](NC(=O)c1cc(F)ccc1NS(=O)(=O)c1ccc(C)cc1)c1ccccc1` [Example 115] gave an IC50 of 2.4 µM. This IC50 is about 1.7-fold higher than that of the compound before.
In the case of `Cc1ccc(S(=O)(=O)Nc2ccccc2C(=O)N(Cc2ccccc2)CC2CCCO2)cc1` (stereo not drawn) [Example 116], the IC50 was 1.1 µM.
Turning to `Cc1ccc(S(=O)(=O)Nc2ccccc2C(=O)N(Cc2ccc(F)cc2)Cc2cccc(C)n2)cc1` [Example 117], the midpoint of inhibition, the IC50, lay at 2.4 µM.
For `Cc1ccc(S(=O)(=O)Nc2ccccc2C(=O)N(Cc2cccnc2)Cc2cccc(C)n2)cc1` [Example 118], the IC50 was determined as 2.2 µM. The IC50 values of the last two compounds are within 1.5-fold of each other.
`Cc1ccc(S(=O)(=O)Nc2ccccc2C(=O)N(Cc2nccs2)CC2CCCCC2)cc1` [Example 119] yielded an IC50 of 2.7 µM.
As for `Cc1ccc(S(=O)(=O)Nc2ccccc2C(=O)N(Cc2cccc(C)n2)CC2CCCO2)cc1` (stereo not drawn) [Example 120], the IC50 is 1.4 µM.
As to `Cc1ccc(S(=O)(=O)Nc2ccccc2C(=O)N(Cc2cccc(C)n2)Cc2ccco2)cc1` [Example 121], half-maximal inhibition (IC50) required 0.6 µM. Against the preceding compound, the IC50 is about 2.3-fold lower.
Compound `Cc1ccc(S(=O)(=O)Nc2ccccc2C(=O)N(Cc2ccco2)Cc2nccn2C)cc1` [Example 122] gave an IC50 of 1.2 µM.
The figure for `CCCCS(=O)(=O)Nc1ccccc1C(=O)N(Cc1cccnc1)Cc1cccc(C)n1` [Example 123] is 2.9 µM; for `COc1ccc(NS(=O)(=O)c2ccc(C)cc2)c(C(=O)NC(c2ccccn2)C2CC2)c1` (stereo not drawn) [Example 124] it is 1 µM.
`CCCCS(=O)(=O)Nc1ccc(C)cc1C(=O)NC(c1ccccn1)C1CC1` (stereo not drawn) [Example 125] registered a concentration for half-maximal inhibition (IC50) of 1.8 µM.
`Cc1ccc(S(=O)(=O)Nc2ccc(C)cc2C(=O)NC(c2ccccn2)C2CC2)cc1` (stereo not drawn) [Example 126] registered an IC50 of 0.6 µM. Compared with the last compound, the IC50 is about 3-fold lower.
To `CCCCS(=O)(=O)Nc1ccc(C)cc1C(=O)NC(c1cccc(OC)n1)C1CC1` (stereo not drawn) [Example 127] belongs 3.3 µM; to `C#CC(NC(=O)c1cc(C)ccc1NS(=O)(=O)CCCC)c1ccccc1` (stereo not drawn) [Example 128], 2.2 µM.
On to `CCCCS(=O)(=O)Nc1ccc(C)cc1C(=O)NC(c1ccc(OC)nc1)C1CC1` (stereo not drawn) [Example 129], for which the IC50 is 1.3 µM.
As to `CCC(c1ccccc1)N(C)C(=O)c1ccccc1NS(=O)(=O)c1ccccc1` (stereo not drawn) [Example 130], the IC50 stood at 0.7 µM.
To `COc1ccc(NS(=O)(=O)c2ccc(C)cc2)c(C(=O)NC(c2cccnc2)C2CC2)c1` (stereo not drawn) [Example 131] belongs 0.7 µM.
Take `COc1ccc(NS(=O)(=O)c2ccc(C)cc2)c(C(=O)NC(C)Cc2ccccn2)c1` (stereo not drawn) [Example 133]: 1.4 µM corresponded to half-maximal inhibition (IC50).
